Results published in US20210260036A1, “METHODS OF TREATMENT FOR ALPHA-1 ANTITRYPSIN DEFICIENCY” (Vertex Pharmaceuticals Incorporated, priority 2020, published 2021).

Assays:
Z-AAT [1] = biological target: T1, Z-AAT (Homo sapiens, UniProt P01009, E366K); experiment: Z-AAT folding and secretion in transgenic mice expressing human Z-AAT; type: in vivo; set-up: expressed in transfected cells; host or cells: transgenic mice expressing human Z-AAT; conditions: transgenic mice engineered to express human Z-AAT
From the text: (§1) 4-[5-(4-fluorophenyl)-6-tetrahydropyran-4-yl-1H-pyrrolo[2,3-f]indazol-7-yl]benzoic acid (Compound I), disclosed in PCT/US2020/032832, filed on May 14, 2020, is being developed as a treatment for AATD. […] Thus, Compound I has the potential to address both the loss-of-function and the gain-of-function aspects of the Z mutation. By restoring physiological levels of circulating AAT activity, Compound I may reduce the risk of lung disease. By preventing Z-polymer formation in the liver, Compound I may reduce the risk of developing progressive liver disease (fibrosis and cirrhosis).

Z-AAT [2] = biological target: T1, Z-AAT; experiment: Z-AAT folding, polymerization and secretion in cell line models; type: cell-based; conditions: multiple cell line models
From the text: as §1

healthy subjects = experiment: Phase 1 randomized, double-blinded, placebo-controlled single and multiple-dose study; type: in vivo, human; conditions: single and multiple doses
From the text: A randomized, double-blinded, placebo-controlled single and multiple-dose Phase I study evaluating Compound I has been completed in healthy subjects.

T1 sequence (P01009 25-418 E366K): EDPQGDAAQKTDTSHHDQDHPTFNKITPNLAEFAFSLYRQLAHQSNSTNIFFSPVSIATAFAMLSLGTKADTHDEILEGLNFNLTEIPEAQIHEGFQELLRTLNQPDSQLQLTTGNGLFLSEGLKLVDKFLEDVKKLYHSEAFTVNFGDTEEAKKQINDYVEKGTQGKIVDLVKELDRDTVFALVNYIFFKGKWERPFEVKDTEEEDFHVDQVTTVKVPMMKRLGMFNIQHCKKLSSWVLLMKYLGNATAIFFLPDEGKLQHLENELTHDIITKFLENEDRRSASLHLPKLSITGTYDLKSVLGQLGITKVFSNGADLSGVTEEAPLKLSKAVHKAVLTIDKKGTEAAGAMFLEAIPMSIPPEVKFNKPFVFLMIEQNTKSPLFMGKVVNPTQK

For O=C(O)c1ccc(-c2c(C3CCOCC3)n(-c3ccc(F)cc3)c3cc4cn[nH]c4cc23)cc1 [Compound I, 4-[5-(4-fluorophenyl)-6-tetrahydropyran-4-yl-1H-pyrrolo[2,3-f]indazol-7-yl]benzoic acid], the “folding and secretion of functionally active AAT” value (Z-AAT [1]) was “facilitates proper folding and secretion of functionally active AAT”, the “folding of Z-AAT” value (Z-AAT [2]) was “promotes the proper folding of Z-AAT” and the “intracellular Z-AAT protein polymerization” value (Z-AAT [2]) was “preventing intracellular Z-AAT protein polymerization”. For the same compound, the “secretion of functionally active AAT” value (Z-AAT [2]) was “increasing secretion of functionally active AAT”, the safety and tolerability (healthy subjects) was “safe and well-tolerated” and the serious adverse events (healthy subjects) was “no serious adverse events”.
